The results in this text go back to PMC6182184 (2018).

The structures appear in SMILES notation.

The experiment relates to SRB-2 (RNA, aptamer) GGAACCUCGCUUCGGCGAUGAUGGAGAGGCGCAAGGUUAACCGCCUCAGGUUCC
The experiment is described as follows: fluorescence titration. The conditions noted are these: 125 mM KCl, 5 mM MgCl2, 20 mM Hepes pH 7.4, 25 °C, RNA titrated.

The term Kd denotes the free concentration of one partner at which half of the binding sites on the other are occupied at equilibrium, for simple one-to-one binding. Low values mean tighter binding, high ones weaker binding. Regarding `Nc1c2ccccc2nc2ccccc12`, under “50 nM probe”, the Kd was determined as 2960 ± 240 nM.
`CCN(CC)c1ccc2cc3ccc(=[N+](CC)CC)cc-3oc2c1` gave a Kd (10 nM probe) of 251 ± 50 nM.
`CN(C)c1ccc2cc3ccc(N(C)C)cc3[o+]c2c1` displayed a Kd (10 nM probe) of 59 ± 9 nM.
`CCN(CC)c1ccc2nc3ccc(N(CC)CC)cc3[o+]c2c1` yielded a Kd (50 nM probe) of 260 ± 21 nM.
As to `CN(C)c1ccc2cc3ccc(N(C)C)cc3nc2c1`, the dissociation constant Kd (10 nM probe) worked out at 88 ± 8 nM.
